Measured values published in article PMC4456386, “Ligand Recognition of the Major Birch Pollen Allergen Bet v 1 is Isoform Dependent” (PLoS ONE, 2015).
“And” between values parts separate entries of the source, which are not always exact repeats. Identical values can stand only once. “Also recorded” adds a separate entry of the source. Like-named read-outs stand apart in the source and are kept apart here.

B1: Bet v 1d: recombinant hypoallergenic isoform of the major birch pollen allergen Bet v 1 (UniProt P43177) (protein, UniProt P43177 2-160, looked up)
Major pollen allergen Bet v …: GVFNYEIETTSVIPAARLFKAFILDGDNLVPKVAPQAISSVENIEGNGGPGTIKKINFPEGFPFKYVKDRVDEVDHTNFKYNYSVIEGGPVGDTLEKISNEIKIVATPDGGCVLKISNKYHTKGNHEVKAEQVKASKEMGETLLRAVESYLLAHSDAYN

Assays:
Bet v 1a [1] = molecular target: T1, Bet v 1a (Betula pendula, UniProt P15494); assay: 1H-15N HSQC NMR titration (chemical shift perturbation) of 15N-Bet v 1a; assay type: binding, Betula verrucosa; settings: for binding to Bet v 1a (in words): 1H-15N HSQC titration; for Kd per residue / Kd: Bet v 1a
T1 construct: made in house
T1 sequence (P15494 whole entry): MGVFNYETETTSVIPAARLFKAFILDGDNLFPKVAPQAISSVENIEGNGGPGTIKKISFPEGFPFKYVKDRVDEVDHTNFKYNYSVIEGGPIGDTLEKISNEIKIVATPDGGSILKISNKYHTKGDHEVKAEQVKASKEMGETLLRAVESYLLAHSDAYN
Experimental: (§1) All NMR experiments were performed at 298 K in 50 mM sodium phosphate buffer, 50 mM NaCl, pH 7.0, 10% deuterium oxide (^2H2O) with ^15N-uniformly labelled Bet v 1 isoforms using Bruker Avance 700 MHz and Avance 800 MHz spectrometers with cryogenically cooled triple-resonance probes equipped with pulsed field-gradient capabilities. NMR data were processed using NMRPipe and visualized with NMRViewJ [89]. Three-dimensional ^15N-edited NOESY (nuclear Overhauser enhancement spectroscopy, mixing times 120 ms) experiments to assign chemical shifts were obtained with 500 μM ^15N-labeled samples of Bet v 1 isoform d or m and yielded 91% of assigned residues for Bet v 1d and 89% for Bet v 1m. The sequence-specific assignments of the amide resonances of Bet v 1a are reported elsewhere.
(§2) Interaction of Q3OS with the Bet v 1 isoforms was measured by incubating 700 μM Q3OS with 50 μM of each ^15N-labeled Bet v 1 isoform in 50 mM sodium phosphate, 50 mM NaCl buffer, pH 7.0.
(§3) For titration experiments all other flavonoids were dissolved in deuterated DMSO, while glucose and galactose were dissolved in 50 mM sodium phosphate buffer, 50 mM NaCl, pH 7.0, 10% deuterium oxide and titrated stepwise to a final excess of up to 17-fold to protein samples (ca. 100 μM). […] CSPs for ligand binding were calculated based on Eq (2): […] (2) ΔδHN and ΔδN, chemical shift differences of amide proton and nitrogen resonances, respectively, in ppm.
(§4) K d values for flavonoid binding were determined with NMRViewJ [89]. All analysable amino acid residues that were unaffected by DMSO addition and showing CSPs > 0.08 ppm were fitted to a quadratic binding curve with default settings, and an average K d app was calculated (Table 1 and S1–S3 Tables). The CSPs of all residues showing CSPs > 0.04 ppm were mapped either on models of Bet v 1d and Bet v 1m or on the Bet v 1a structure (pdb code 1BV1, [29]).

Bet v 1m [2] = molecular target: T2, Bet v 1m (Betula pendula, UniProt P43186); assay: 1H-15N HSQC NMR titration (chemical shift perturbation) of 15N-Bet v 1m; assay type: binding, Betula verrucosa; settings: for Kd per residue: one value per residue with Δδnorm > 0.08 ppm (residue named left of the cell), Int. Ex. = intermediate exchange
T2 construct: made in house
T2 sequence (P43186 whole entry): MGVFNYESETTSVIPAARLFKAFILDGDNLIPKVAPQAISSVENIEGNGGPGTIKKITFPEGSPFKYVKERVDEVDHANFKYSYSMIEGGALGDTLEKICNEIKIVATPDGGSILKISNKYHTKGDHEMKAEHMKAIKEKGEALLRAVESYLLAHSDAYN
Experimental: as §1, §2, §3, §4

Bet v 1d = molecular target: T3, Bet v 1d (Betula pendula, UniProt P43177); assay: 1H-15N HSQC NMR titration (chemical shift perturbation) of 15N-Bet v 1d; assay type: binding, Betula verrucosa; settings: for binding to Bet v 1d (in words): 1H-15N HSQC titration, up to 15-fold excess; for Dissociation constant Kd (averaged Kd app): NMR, Bet v 1d, average of all analysable residues with CSPs > 0.08 ppm, ± standard deviation
T3 construct: made in house
T3 sequence (P43177 whole entry): as the sequence (P15494 whole entry) above, with T8I, F31V, S58N, I92V, S113C, I114V, D126N counted along it
Experimental: as §1, §2, §3, §4

[3] = system: serum IgE binding to surface-coated Bet v 1a, Bet v 1d and Bet v 1m; assay: Indirect ELISA for IgE binding to Bet v 1 isoforms; design: species or system human; settings: for influence of ligand on IgE binding of Bet v 1 isoforms: 5-fold molar excess of ligand, isoforms a, d, m
From the text: (§5) Fifteen sera of birch pollen-allergic subjects were collected, tested, and pooled according to the guideline of the European Medicines Agency (EMEA/CHMP/BWP/304831/2007). The serum pool is routinely used for batch-release testing of birch pollen-derived allergenic products at the Paul-Ehrlich-Institut. The same serum pool was used for both, ELISA and mediator release assays.
For IgE-ELISA experiments, Maxisorp plates (Nunc via Fisher Scientific) were coated overnight at room temperature with 50 ng/100 μl recombinant Bet v 1 isoforms a, d, or m with a 5-fold molar excess of quercetin-3-O-sophorose, rutin, quercetin, quercetin-3-O-glucoside, quercetin-3-O-galactoside, or sophorose, respectively, in phosphate-buffered saline (PBS). After blocking with PBS containing 2% bovine serum albumin (BSA) these plates and an uncoated control were incubated with a dilution series of a serum pool of birch-pollen allergic subjects for 1 h at room temperature with PBS containing 0.05% Tween 20 and 0.1% BSA. Allergen-specific human IgE was detected with a horseradish peroxidase-conjugated mouse anti-human IgE antibody (Clone B3102E8, Southern biotech via Biozol, Eching, Germany) diluted 1:1000. 3,3′,5,5′-tetramethylbenzidine (Roth, Karlsruhe) was used as substrate for horseradish peroxidase, and the absorbance at 450 nm was measured after stopping the reaction with 25% H2SO4.

[4] = UV/VIS absorption spectra of unbound flavonoids; assay type: physicochemical; settings: pH 7.0
Experimental: All flavonoids and Bet v 1 isoforms were dissolved in 50 mM sodium phosphate, 50 mM NaCl, 10% (v/v) DMSO, pH 7.0, to a final concentration of 10 to 20 μM in 500 μl. Absorption spectra from 200–800 nm were recorded at 25°C in a 1 cm quartz cuvette (Hellma GmbH) using a 8453 UV-visible spectrophotometer (Agilent).

Bet v 1m [5] = molecular target: T2, Bet v 1m; assay: 1H-15N HSQC NMR titration (chemical shift perturbation) of 15N-Bet v 1m; assay type: binding, Betula verrucosa; settings: 1H-15N HSQC titration, up to 15-fold excess
[6] = system: humanized rat basophil leukemia (RBL) cells; assay: β-Hexosaminidase release (mediator release) assay; assay type: cell-based
Experimental: as §5
The mediator release assay was performed according to an established protocol. […] After washing, cells were stimulated with serial dilutions of Bet v 1 isoforms a, d, or m in Tyrode's buffer containing […]. For complex formation, the Bet v 1 isoforms were incubated overnight with a 5-fold molar excess of Q3OS, rutin, quercetin, Q3OGlc, Q3OGal, or sophorose, respectively, before stimulating the cells. Degranulation was quantified by photometric measurement of β-hexosaminidase activity in the culture supernatants. The percentage of β-hexosaminidase activity relative to cells lysed with Triton X-100 (Sigma-Aldrich, Steinheim, Germany) was calculated and corrected for spontaneous release (sensitized cells without allergen).

Bet v 1a [7] = molecular target: T1, Bet v 1a; settings: Fluorescence, read-out: Dissociation constant Kd; cited from earlier work
[8] = one value per residue with Δδnorm > 0.08 ppm (residue named left of the cell), Int. Ex. = intermediate exchange
[9] = NMR, average of all analysable residues with CSPs > 0.08 ppm, ± standard deviation, read-out: Dissociation constant Kd (averaged Kd app)
[10] = Dissociation constant Kd (averaged Kd app), NMR, average of all analysable residues with CSPs > 0.08 ppm, ± standard deviation

IgE-binding capacity ([3]; absence of ligands, pool serum of birch pollen-allergic subjects) | Molecule | binding to Bet v 1a (in words) (Bet v 1a [1]) | Kd per residue (Bet v 1a [1]; [8]) | Kd (Bet v 1a [1]; [9]) [µM] | Kd (Bet v 1m [2]; [9]) [µM] | Kd per residue (Bet v 1m [2]) | binding to Bet v 1d (in words) (Bet v 1d) | Dissociation constant Kd (averaged Kd app) (Bet v 1d) | influence of ligand on IgE binding of Bet v 1 isoforms [3] | Absorption maxima, Flavonoid [4] [nm] | binding to Bet v 1m (in words) (Bet v 1m [5]) | Kd (Bet v 1a [1]; [10]) [µM] | Kd (Bet v 1a [1]; Kd per residue, one value per residue with Δδnorm > 0.08 ppm (residue named left of the cell), Int. Ex. = intermediate exchange) | Kd (Bet v 1m [2]; [10]) [µM] | Dissociation constant Kd (averaged Kd app) (Bet v 1m [2]; NMR, average of all analysable residues with CSPs > 0.08 ppm, ± standard deviation) | influence of ligand on mediator release induced by Bet v 1 isoforms ([6]; 5-fold molar excess of ligand, isoforms a, d, m) | Kd (Bet v 1a [7]) [µM] | shift to higher concentration for half-maximum release of β-hexosaminidase in comparison to the other isoforms ([6]; absence of ligands)
 | O=c1c(O[C@@H]2O[C@H](CO)[C@H](O)[C@H](O)[C@H]2O)c(-c2ccc(O)c(O)c2)oc2cc(O)cc(O)c12 [Q3OGal, quercetin-3-O-galactoside] | high affinity; also recorded: strong | Int. Ex. | < 5 | < 5 | Int. Ex. | Weak affinity; also recorded: did not produce significant CSPs | No binding | did not modify IgE-binding | 358 | High affinity |  |  |  |  |  |  | 
 | O=c1c(O[C@@H]2O[C@H](CO)[C@@H](O)[C@H](O)[C@H]2O)c(-c2ccc(O)c(O)c2)oc2cc(O)cc(O)c12 [Q3OGlc, quercetin-3-O-glucoside] | weak | Int. Ex. |  |  | Int. Ex. | Weak affinity; also recorded: did not produce significant CSPs | No binding | did not modify IgE-binding | 364 | High affinity; also recorded: strongly binds | 288 | 357 µM and 259 µM and 285 µM and 252 µM | < 5 |  |  |  | 
 | O=c1c(O[C@@H]2O[C@H](CO)[C@@H](O)[C@H](O)[C@H]2O[C@@H]2O[C@H](CO)[C@@H](O)[C@H](O)[C@H]2O)c(-c2ccc(O)c(O)c2)oc2cc(O)cc(O)c12 [Q3OS, quercetin-3-O-sophoroside] |  | Int./Slow Ex. | < 1 |  |  | did not produce significant CSPs | No binding | does not significantly influence | 358 | did not lead to significant CSPs |  |  |  | No binding | does not significantly influence | 0.57 | 
only marginal | B1 |  |  |  |  |  |  |  |  |  |  |  |  |  |  |  |  | approximately 10 fold
